Measured values as given in ChEMBL document CHEMBL1157522 (Bioorg Med Chem Lett, 2008).
Active and inactive are the calls of the source. The rule behind the calls is not given here.

What was measured:
[1] = target: Coagulation factor X (Homo sapiens, UniProt P00742); assay: Inhibition of human factor 10a
[2] = target: Trypsin (Homo sapiens) (UniProt P07477+P07478+P35030); assay: Inhibition of human trypsin; format: protein assay
[3] = target: Coagulation factor IX (Homo sapiens) (UniProt P00740); assay: Inhibition of human factor 9a
[4] = target: T1, Coagulation factor VII (Homo sapiens) (UniProt P08709); assay: Inhibition of human factor 7a
T1 sequence (whole entry): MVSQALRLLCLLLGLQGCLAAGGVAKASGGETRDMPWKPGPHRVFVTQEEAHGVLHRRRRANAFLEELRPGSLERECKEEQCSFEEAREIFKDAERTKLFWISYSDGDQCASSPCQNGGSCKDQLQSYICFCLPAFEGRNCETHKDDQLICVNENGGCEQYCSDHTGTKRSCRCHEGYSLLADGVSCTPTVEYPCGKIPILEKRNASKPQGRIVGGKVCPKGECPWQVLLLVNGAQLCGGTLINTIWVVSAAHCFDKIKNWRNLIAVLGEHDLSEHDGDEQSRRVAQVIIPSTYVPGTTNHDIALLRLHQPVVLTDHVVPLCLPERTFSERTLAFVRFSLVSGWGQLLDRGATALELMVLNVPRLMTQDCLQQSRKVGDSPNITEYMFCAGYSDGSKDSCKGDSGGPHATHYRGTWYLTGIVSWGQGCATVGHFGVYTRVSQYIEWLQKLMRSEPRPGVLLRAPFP

[5] = target: Plasminogen (Homo sapiens) (UniProt P00747); assay: Inhibition of human plasmin
[6] = organism: Homo sapiens; assay: Inhibition of human chymotrypsin
[7] = target: Tissue-type plasminogen activator (Homo sapiens) (UniProt P00750); assay: Inhibition of human tPA
[8] = target: Plasma kallikrein (Homo sapiens) (UniProt P03952); assay: Inhibition of human plasma kallikrein; format: cell-free
[9] = target: Vitamin K-dependent protein C (Homo sapiens) (UniProt P04070); assay: Inhibition of human activated protein C
Sequence of Vitamin K-dependent protein C (Homo sapiens) (P04070 43-197 limits assumed): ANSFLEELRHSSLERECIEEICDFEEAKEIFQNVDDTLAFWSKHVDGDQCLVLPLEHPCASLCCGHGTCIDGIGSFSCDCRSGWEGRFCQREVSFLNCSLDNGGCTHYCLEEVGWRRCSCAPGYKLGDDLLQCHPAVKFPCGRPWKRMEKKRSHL
Sequence of Vitamin K-dependent protein C (Homo sapiens) (P04070 212-461 limits assumed): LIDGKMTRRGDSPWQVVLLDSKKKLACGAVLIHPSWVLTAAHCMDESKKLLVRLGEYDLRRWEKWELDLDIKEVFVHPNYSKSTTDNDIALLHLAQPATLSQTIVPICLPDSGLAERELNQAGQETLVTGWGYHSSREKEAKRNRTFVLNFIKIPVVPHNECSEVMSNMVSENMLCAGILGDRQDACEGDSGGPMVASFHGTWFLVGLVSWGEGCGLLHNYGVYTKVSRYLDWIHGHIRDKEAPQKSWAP

Sequence of Plasma kallikrein (Homo sapiens) (P03952 20-390 limits assumed): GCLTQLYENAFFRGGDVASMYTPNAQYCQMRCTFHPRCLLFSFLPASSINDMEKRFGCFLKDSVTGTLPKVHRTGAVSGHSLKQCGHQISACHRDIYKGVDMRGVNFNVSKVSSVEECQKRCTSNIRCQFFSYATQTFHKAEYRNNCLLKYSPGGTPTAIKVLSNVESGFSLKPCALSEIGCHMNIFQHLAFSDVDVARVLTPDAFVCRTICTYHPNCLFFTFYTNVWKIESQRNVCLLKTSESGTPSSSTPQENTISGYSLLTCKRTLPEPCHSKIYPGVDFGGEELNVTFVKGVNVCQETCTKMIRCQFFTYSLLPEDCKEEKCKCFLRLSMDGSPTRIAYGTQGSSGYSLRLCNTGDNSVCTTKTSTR
Sequence of Plasma kallikrein (Homo sapiens) (P03952 391-638 limits assumed): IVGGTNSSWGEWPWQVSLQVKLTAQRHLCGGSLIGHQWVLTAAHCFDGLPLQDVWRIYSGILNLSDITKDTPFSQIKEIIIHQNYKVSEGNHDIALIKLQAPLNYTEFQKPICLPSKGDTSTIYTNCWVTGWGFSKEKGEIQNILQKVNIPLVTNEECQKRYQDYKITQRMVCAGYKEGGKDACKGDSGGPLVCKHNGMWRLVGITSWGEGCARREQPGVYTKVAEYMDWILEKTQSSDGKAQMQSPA
Sequence of Coagulation factor IX (Homo sapiens) (P00740 47-191 limits assumed): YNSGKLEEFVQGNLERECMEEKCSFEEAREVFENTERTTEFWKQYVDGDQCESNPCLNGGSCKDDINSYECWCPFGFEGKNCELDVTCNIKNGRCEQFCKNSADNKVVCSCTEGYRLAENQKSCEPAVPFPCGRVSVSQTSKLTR
Sequence of Coagulation factor IX (Homo sapiens) (P00740 227-461 limits assumed): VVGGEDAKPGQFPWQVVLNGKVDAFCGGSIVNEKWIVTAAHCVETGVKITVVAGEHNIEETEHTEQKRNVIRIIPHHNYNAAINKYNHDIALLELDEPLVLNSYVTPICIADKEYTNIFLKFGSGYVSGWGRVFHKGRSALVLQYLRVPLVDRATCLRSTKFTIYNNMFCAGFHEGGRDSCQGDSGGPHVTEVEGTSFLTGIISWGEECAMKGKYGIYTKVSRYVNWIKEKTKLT
Sequence of Coagulation factor X (P00742 41-179 limits assumed): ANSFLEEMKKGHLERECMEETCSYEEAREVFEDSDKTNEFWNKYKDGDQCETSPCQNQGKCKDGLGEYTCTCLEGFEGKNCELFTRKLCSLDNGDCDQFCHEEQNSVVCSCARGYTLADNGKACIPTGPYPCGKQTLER
Sequence of Coagulation factor X (P00742 235-488 limits assumed): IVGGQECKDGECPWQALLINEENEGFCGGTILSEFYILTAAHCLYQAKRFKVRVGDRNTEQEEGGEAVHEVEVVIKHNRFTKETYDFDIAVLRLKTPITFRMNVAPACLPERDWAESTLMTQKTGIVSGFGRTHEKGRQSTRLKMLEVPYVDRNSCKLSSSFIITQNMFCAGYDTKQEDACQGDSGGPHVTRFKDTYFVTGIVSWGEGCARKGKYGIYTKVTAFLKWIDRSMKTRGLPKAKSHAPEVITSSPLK
Sequence of Tissue-type plasminogen activator (Homo sapiens) (P00750 36-562 limits assumed): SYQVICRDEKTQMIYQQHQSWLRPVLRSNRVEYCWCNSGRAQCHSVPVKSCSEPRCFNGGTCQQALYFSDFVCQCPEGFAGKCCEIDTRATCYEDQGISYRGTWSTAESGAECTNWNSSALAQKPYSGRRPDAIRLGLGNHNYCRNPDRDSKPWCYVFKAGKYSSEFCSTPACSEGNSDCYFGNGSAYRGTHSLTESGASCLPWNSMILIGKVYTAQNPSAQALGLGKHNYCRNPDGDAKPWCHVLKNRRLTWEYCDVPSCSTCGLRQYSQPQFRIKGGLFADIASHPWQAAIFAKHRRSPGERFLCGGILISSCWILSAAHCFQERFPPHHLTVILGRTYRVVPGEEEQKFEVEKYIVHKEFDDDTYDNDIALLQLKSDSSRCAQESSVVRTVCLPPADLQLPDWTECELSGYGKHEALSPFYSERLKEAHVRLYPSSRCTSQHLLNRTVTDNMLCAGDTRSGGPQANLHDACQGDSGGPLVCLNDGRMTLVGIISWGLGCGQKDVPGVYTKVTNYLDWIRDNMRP
Sequence of Plasminogen (Homo sapiens) (P00747 97-580 limits assumed): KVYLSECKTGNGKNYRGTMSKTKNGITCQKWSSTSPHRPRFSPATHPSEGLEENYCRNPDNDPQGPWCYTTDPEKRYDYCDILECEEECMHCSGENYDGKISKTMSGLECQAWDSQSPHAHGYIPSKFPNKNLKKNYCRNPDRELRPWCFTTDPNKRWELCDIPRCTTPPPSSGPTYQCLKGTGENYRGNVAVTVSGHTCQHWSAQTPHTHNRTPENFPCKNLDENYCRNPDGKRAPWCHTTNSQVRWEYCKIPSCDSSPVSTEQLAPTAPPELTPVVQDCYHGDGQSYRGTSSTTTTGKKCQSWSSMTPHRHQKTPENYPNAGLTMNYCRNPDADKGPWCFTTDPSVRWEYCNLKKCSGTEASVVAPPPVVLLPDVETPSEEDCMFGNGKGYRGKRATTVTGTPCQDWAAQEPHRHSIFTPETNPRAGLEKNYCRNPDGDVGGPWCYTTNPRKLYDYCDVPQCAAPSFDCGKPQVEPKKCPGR
Sequence of Plasminogen (Homo sapiens) (P00747 581-810 limits assumed): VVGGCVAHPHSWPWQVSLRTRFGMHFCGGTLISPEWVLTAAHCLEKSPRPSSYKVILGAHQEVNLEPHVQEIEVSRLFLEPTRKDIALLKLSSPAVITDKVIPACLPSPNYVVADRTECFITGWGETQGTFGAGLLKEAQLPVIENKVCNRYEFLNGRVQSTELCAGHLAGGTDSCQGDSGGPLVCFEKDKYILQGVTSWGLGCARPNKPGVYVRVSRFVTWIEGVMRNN

Ki [1] [nM] | Activity [2] | Activity [3] | Activity [4] | Activity [5] | Activity [6] | Activity [7] | Activity [8] | Activity [9] | SMILES
169 | inactive | inactive | inactive | inactive | inactive | inactive | inactive | inactive | COc1ccc(-n2nc(C(F)(F)F)c3c2C(=O)N(c2ccc(C4(C(=O)N5CCCC5)CC4)cc2)CC3)cc1
< 0.02 | inactive | inactive | inactive | inactive | inactive | inactive | inactive | inactive | CCN(CC)CC1(c2ccc(N3CCc4c(C(F)(F)F)nn(-c5ccc(OC)cc5)c4C3=O)cc2)CC1
54 | inactive | inactive | inactive | inactive | inactive | inactive | inactive | inactive | COc1ccc(-n2nc(C(F)(F)F)c3c2C(=O)N(c2ccc(C4(C(=O)N5CCC(O)CC5)CC4)cc2)CC3)cc1
1.4 | – | – | – | – | – | – | – | – | COc1ccc(-n2nc(C(F)(F)F)c3c2C(=O)N(c2ccc(-c4ccccc4CNC(C)C)cc2)CC3)cc1
0.12 | inactive | inactive | inactive | inactive | inactive | inactive | inactive | inactive | COc1ccc(-n2nc(C(F)(F)F)c3c2C(=O)N(c2ccc(C4(CNC5CCCC5)CC4)cc2)CC3)cc1
– | inactive | inactive | inactive | inactive | inactive | inactive | inactive | inactive | COC(=O)C1(c2ccc(N3CCc4c(C(F)(F)F)nn(-c5ccc(OC)cc5)c4C3=O)cc2)CC1
0.57 | inactive | inactive | inactive | inactive | inactive | inactive | inactive | inactive | COc1ccc(-n2nc(C(F)(F)F)c3c2C(=O)N(c2ccc(C4(CN)CC4)cc2)CC3)cc1
1.6 | inactive | inactive | inactive | inactive | inactive | inactive | inactive | inactive | COCC1(c2ccc(N3CCc4c(C(F)(F)F)nn(-c5ccc(OC)cc5)c4C3=O)cc2)CC1
– | inactive | inactive | inactive | inactive | inactive | inactive | inactive | inactive | CNCC1(c2ccc(N3CCc4c(C(F)(F)F)nn(-c5ccc(OC)cc5)c4C3=O)cc2)CC1
0.15 | – | – | – | – | – | – | – | – | CNCc1ccccc1-c1ccc(N2CCc3c(C(N)=O)nn(-c4ccc(OC)cc4)c3C2=O)cc1
0.055 | inactive | inactive | inactive | inactive | inactive | inactive | inactive | inactive | COc1ccc(-n2nc(C(F)(F)F)c3c2C(=O)N(c2ccc(C4(CN(C)C(C)=O)CC4)cc2)CC3)cc1
0.14 | inactive | inactive | inactive | inactive | inactive | inactive | inactive | inactive | CCNC(=O)N(C)CC1(c2ccc(N3CCc4c(C(F)(F)F)nn(-c5ccc(OC)cc5)c4C3=O)cc2)CC1
1.8 | inactive | inactive | inactive | inactive | inactive | inactive | inactive | inactive | COc1ccc(-n2nc(C(F)(F)F)c3c2C(=O)N(c2ccc(C4(C(=O)Nc5nncs5)CC4)cc2)CC3)cc1
0.038 | inactive | inactive | inactive | inactive | inactive | inactive | inactive | inactive | COc1ccc(-n2nc(C(F)(F)F)c3c2C(=O)N(c2ccc(C4(CN5CC[C@@H](O)C5)CC4)cc2)CC3)cc1
0.074 | inactive | inactive | inactive | inactive | inactive | inactive | inactive | inactive | COc1ccc(-n2nc(C(F)(F)F)c3c2C(=O)N(c2ccc(C4(CN(C)S(C)(=O)=O)CC4)cc2)CC3)cc1
– | inactive | inactive | inactive | inactive | inactive | inactive | inactive | inactive | COc1ccc(-n2nc(C(F)(F)F)c3c2C(=O)N(c2ccc(C4(Cn5ccnc5C)CC4)cc2)CC3)cc1
3 | inactive | inactive | inactive | inactive | inactive | inactive | inactive | inactive | COc1ccc(-n2nc(C(F)(F)F)c3c2C(=O)N(c2ccc(C4(C(=O)Nc5nnn[nH]5)CC4)cc2)CC3)cc1
0.042 | inactive | inactive | inactive | inactive | inactive | inactive | inactive | inactive | COc1ccc(-n2nc(C(F)(F)F)c3c2C(=O)N(c2ccc(C4(CNC(C)C)CC4)cc2)CC3)cc1
0.054 | inactive | inactive | inactive | inactive | inactive | inactive | inactive | inactive | COc1ccc(-n2nc(C(F)(F)F)c3c2C(=O)N(c2ccc(C4(CNc5nccs5)CC4)cc2)CC3)cc1
– | inactive | inactive | inactive | inactive | inactive | inactive | inactive | inactive | COc1ccc(-n2nc(C(F)(F)F)c3c2C(=O)N(c2ccc(C4(CN5CCOCC5)CC4)cc2)CC3)cc1
0.28 | – | – | – | – | – | – | – | – | CNCc1ccccc1-c1ccc(N2CCc3c(C(F)(F)F)nn(-c4ccc(OC)cc4)c3C2=O)cc1
0.3 | – | – | – | – | – | – | – | – | COc1ccc(-n2nc(C(F)(F)F)c3c2C(=O)N(c2ccc(-c4ccccc4CN(C)C)cc2)CC3)cc1
